Article PMC5971037, “Synthesis and evaluation of antimicrobial, antitubercular and anticancer activities of 2-(1-benzoyl-1H-benzo[d]imidazol-2-ylthio)-N-substituted acetamides” (Chemistry Central Journal, 2018)
pIC50: −log10 of the molar value. ≈ marks a conversion by molar mass, not a printed value. Like-named read-outs stand apart in the source and are kept apart here.

How the values were obtained:
C. albicans [1] = test: microbe, parasite or virus in culture; conditions: Candida albicans, 48 h, read-out: MIC C. albicans
A. niger [2] = test: microbe, parasite or virus in culture; conditions: Aspergillus niger, 168 h, read-out: MIC A. niger
S. typhi [3] = test: Tube dilution MIC; type: cell-based; conditions: Salmonella enterica, 24 h, read-out: MIC S. typhi
B. cereus [4] = test: MBC by subculturing; type: cell-based
Method: (§1) The minimum bactericidal concentration (MBC) and minimum fungicidal concentration (MFC) of the synthesized benzimidazole derivatives was determined by subculturing 100 µl of culture from each tube that remained clear in MIC determination onto sterilized petri-plates containing fresh agar medium. The petri-plates were incubated and analyzed for microbial growth visually.

B. subtilis [5] = test: MBC by subculturing; type: cell-based
Method: as §1

E. coli [6] = test: MBC by subculturing; type: cell-based; conditions: Escherichia coli
Method: as §1

S. aureus [7] = test: MBC by subculturing; type: cell-based; conditions: Staphylococcus aureus
Method: as §1

S. typhi [8] = test: MBC by subculturing; type: cell-based; conditions: Salmonella enterica, read-out: MBC S. typhi
Method: as §1

A. niger [9] = test: MFC by subculturing; type: cell-based
Method: as §1

C. albicans [10] = test: MFC by subculturing; type: cell-based
Method: as §1

[11] = tested on: M. tuberculosis H37Rv (NCFT/TB/537); test: Well diffusion susceptibility test (zone of inhibition); type: cell-based; conditions: Mycobacterium tuberculosis, 672 h, read-out: Diameter of zone of inhibition against H37Rv (NCFT/TB/537), wells of 8 mm, 50 µg/ml test compound, 25 µg/ml standard drug, 4 weeks, NA = no activity
M. tuberculosis H37Rv [12] = test: MIC by microplate alamar blue assay; type: cell-based; conditions: Mycobacterium tuberculosis, NA = no activity, read-out: MIC against M. tuberculosis H37Rv
M. tuberculosis H37Rv [13] = test: Minimum lethal concentration (MLC); type: cell-based; conditions: Mycobacterium tuberculosis, NA = no activity, read-out: MLC against M. tuberculosis H37Rv
[14] = In vivo LD50, ED50 and toxic dose in mice models; conditions: mouse, dose that killed 50% of the mice population within the group
Method: The LD50 and ED50 were determined for the active compounds in mice models infected with Mycobacterium H37Rv (Table 4). […] Thus, ED50 of 1.34 mg/kg was considered safe for each of the compounds. It was observed that this dose was effective and safe for mice in different groups before infecting the mice models with specific TB bacteria as no mortality of any single animal was recorded.
The LD50 (lethal dose) and ED50 (optimum/effective dose) doses were determined for the active compounds in mice models infected with Mycobacterium H37Rv via ethical permission no., NCFT/EC/16/2313 assigned to Collaborative Research Group (CRG), NCFT, New Delhi, India.

[15] = target: mycobacterial isocitrate lyase (Mycobacterium tuberculosis, UniProt P9WKK7); test: Mycobacterial isocitrate lyase (ICL) assay; type: biochemical, M. tuberculosis H37Rv; conditions: read-out: Percent inhibition of enzyme, M. ICL activity
Sequence of mycobacterial isocitrate lyase (P9WKK7 whole entry): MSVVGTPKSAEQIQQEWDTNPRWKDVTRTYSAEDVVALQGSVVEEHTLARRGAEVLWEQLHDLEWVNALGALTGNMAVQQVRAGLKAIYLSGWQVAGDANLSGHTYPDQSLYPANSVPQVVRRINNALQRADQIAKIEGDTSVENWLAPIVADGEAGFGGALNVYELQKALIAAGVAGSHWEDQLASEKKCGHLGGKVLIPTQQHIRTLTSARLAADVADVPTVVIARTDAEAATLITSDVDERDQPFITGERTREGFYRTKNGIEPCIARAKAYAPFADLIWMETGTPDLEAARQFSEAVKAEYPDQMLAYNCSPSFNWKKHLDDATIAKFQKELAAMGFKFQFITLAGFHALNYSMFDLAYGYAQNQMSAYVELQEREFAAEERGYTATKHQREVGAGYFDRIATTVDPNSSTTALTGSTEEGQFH
Method: The compounds found potent in in vivo evaluation were assayed for inhibition of mycobacterial enzymes viz., isocitrate lyase, pantothenate synthetase and chorismate mutase.
Isocitrate lyase activity was assayed according to the protocol reported by Dixon and Kornberg (glyoxylate phenyl hydrazone formation) at 10 μM of the compounds.

[16] = tested on: MCF7 (human breast cancer) cell line; test: Sulforhodamine-B (SRB) cytotoxicity assay; type: cell-based
[17] = tested on: HCT116 (human colorectal) cell line; test: Sulforhodamine-B (SRB) cytotoxicity assay; type: cell-based
S. aureus [18] = test: Tube dilution MIC; conditions: Staphylococcus aureus, 24 h, read-out: MIC S. aureus
B. cereus [19] = test: Tube dilution MIC; conditions: Bacillus cereus, 24 h, read-out: MIC B. cereus
B. subtilis [20] = test: Tube dilution MIC; conditions: Bacillus subtilis, 24 h, read-out: MIC B. subtilis
E. coli [21] = test: Tube dilution MIC; conditions: Escherichia coli, 24 h, read-out: MIC E. coli
[22] = Bacillus cereus, read-out: MBC B. cereus
[23] = Bacillus subtilis, read-out: MBC B. subtilis
[24] = Aspergillus niger, read-out: MFC A. niger
[25] = Candida albicans, read-out: MFC C. albicans
[26] = HCT-116, SRB assay, HCT116 cell line, read-out: IC50 HCT116
[27] = Bacillus cereus; read-out: MBC B. cereus
[28] = Bacillus subtilis; read-out: MBC B. subtilis
[29] = Aspergillus niger; read-out: MFC A. niger
[30] = Candida albicans; read-out: MFC C. albicans
[31] = SRB assay, MCF7 cell line, read-out: IC50 MCF7

| Structure (SMILES) | MIC (C. albicans [1]) [µM] | MIC (A. niger [2]) [µM] | MIC (S. typhi [3]) [µM] | MBC (E. coli [6]) [µg/mL] | MBC (S. aureus [7]) [µg/mL] | MBC (S. typhi [8]) [µg/mL] | zone of inhibition at 50 µg/mL [11] [mm] | MIC (M. tuberculosis H37Rv [12]) [µg/mL] | MBC (M. tuberculosis H37Rv [13]) [µg/mL] | inhibition at 10 µM [15] [%] | MIC (S. aureus [18]) [µM] | MIC (B. cereus [19]) [µM] | MIC (B. subtilis [20]) [µM] | MIC (E. coli [21]) [µM] | pIC50 [17, 26] | other results |
| --- | --- | --- | --- | --- | --- | --- | --- | --- | --- | --- | --- | --- | --- | --- | --- | --- |
| OC(Cn1cncn1)(Cn1cncn1)c1ccc(F)cc1F [Fluconazole, reference compound] | 470 (≈ 144 µg/mL) | 470 (≈ 144 µg/mL) |  |  |  |  |  |  |  |  |  |  |  |  |  |  |
| O=C(CSc1nc2ccccc2n1C(=O)c1ccccc1)Nc1cc(Cl)ccc1Cl [Compound 6, 2-(1-Benzoyl-1H-benzo[d]imidazol-2-ylthio)-N-(2,5-dichlorophenyl)acetamide] | 14 (≈ 6.39 µg/mL) | 27 (≈ 12.3 µg/mL) | 27 (≈ 12.3 µg/mL) | > 50 | > 50 | 25 (≈ 54.8 µM) | > 20 | 12.5 (≈ 27.4 µM) | 25 (≈ 54.8 µM) | 56.8 | 27 (≈ 12.3 µg/mL) | 27 (≈ 12.3 µg/mL) | 27 (≈ 12.3 µg/mL) | 27 (≈ 12.3 µg/mL) |  | MBC (B. cereus [4]; [22]): > 50 µg/mL; MBC (B. subtilis [5]; [23]): > 50 µg/mL; MFC (A. niger [9]; [24]): > 50 µg/mL; MFC (C. albicans [10]; [25]): 50 µg/mL (≈ 110 µM); LD50 [14]: 1.86 mg/kg; pIC50 ([16]; MCF7, read-out: IC50 MCF7): 4.05; pIC50 ([17]; HCT-116, read-out: IC50 HCT116): 4.08 |
| [H]/N=C(/N)N[C@H]1[C@H](O)[C@@H](O)[C@H](O[C@@H]2O[C@@H](C)[C@](O)(C=O)[C@H]2O[C@@H]2O[C@@H](CO)[C@H](O)[C@@H](O)[C@@H]2NC)[C@@H](N/C(N)=N\[H])[C@@H]1O [Streptomycin sulphate, streptomycin sulphate, reference compound] |  |  |  |  |  |  |  |  |  | 75.1 |  |  |  |  |  |  |
| O=c1[nH]cc(F)c(=O)[nH]1 [Compound 5-FU, 5-fluorouracil, reference compound] |  |  |  |  |  |  |  |  |  |  |  |  |  |  | 4.90 |  |
| O=C(CSc1nc2ccccc2n1C(=O)c1ccccc1)Nc1cccc(Cl)c1 [Compound 5, 2-(1-Benzoyl-1H-benzo[d]imidazol-2-ylthio)-N-(3-chlorophenyl)acetamide] | 15 (≈ 6.33 µg/mL) | 30 (≈ 12.7 µg/mL) | 30 (≈ 12.7 µg/mL) | 50 (≈ 119 µM) | 50 (≈ 119 µM) | 50 (≈ 119 µM) | 8 | 17.8 (≈ 42.2 µM) | 28.1 (≈ 66.6 µM) |  | 30 (≈ 12.7 µg/mL) | 30 (≈ 12.7 µg/mL) | 30 (≈ 12.7 µg/mL) | 30 (≈ 12.7 µg/mL) | 3.88 | MBC (B. cereus [4]; [27]): > 50 µg/mL; MBC (B. subtilis [5]; [28]): 50 µg/mL (≈ 119 µM); MFC (A. niger [9]; [29]): > 50 µg/mL; MFC (C. albicans [10]; [30]): 50 µg/mL (≈ 119 µM); pIC50 [16, 31]: 4.08 |
| Cc1cccc(C)c1NC(=O)CSc1nc2ccccc2n1C(=O)c1ccccc1 [Compound 13, 2-(1-Benzoyl-1H-benzo[d]imidazol-2-ylthio)-N-(2,6-dimethylphenyl)acetamide] | 15 (≈ 6.23 µg/mL) | 30 (≈ 12.5 µg/mL) | 30 (≈ 12.5 µg/mL) | 50 (≈ 120 µM) | 50 (≈ 120 µM) | > 50 | > 20 | 12.5 (≈ 30.1 µM) | 25 (≈ 60.2 µM) | 56.5 | 30 (≈ 12.5 µg/mL) | 30 (≈ 12.5 µg/mL) | 30 (≈ 12.5 µg/mL) | 30 (≈ 12.5 µg/mL) |  | MBC (B. cereus [4]; [22]): > 50 µg/mL; MBC (B. subtilis [5]; [23]): > 50 µg/mL; MFC (A. niger [9]; [24]): > 50 µg/mL; MFC (C. albicans [10]; [25]): 25 µg/mL (≈ 60.2 µM); LD50 [14]: 2.14 mg/kg; pIC50 ([16]; MCF7, read-out: IC50 MCF7): 3.87; pIC50 ([17]; HCT-116, read-out: IC50 HCT116): 4.02 |
| COc1cccc(NC(=O)CSc2nc3ccccc3n2C(=O)c2ccccc2)c1 [Compound 14, 2-(1-Benzoyl-1H-benzo[d]imidazol-2-ylthio)-N-(3-methoxyphenyl)acetamide] | 30 (≈ 12.5 µg/mL) | 30 (≈ 12.5 µg/mL) | 30 (≈ 12.5 µg/mL) | 50 (≈ 120 µM) | > 50 | > 50 |  |  |  |  | 30 (≈ 12.5 µg/mL) | 30 (≈ 12.5 µg/mL) | 30 (≈ 12.5 µg/mL) | 30 (≈ 12.5 µg/mL) | 4.02 | MBC (B. cereus [4]; [27]): > 50 µg/mL; MBC (B. subtilis [5]; [28]): > 50 µg/mL; MFC (A. niger [9]; [29]): > 50 µg/mL; MFC (C. albicans [10]; [30]): 50 µg/mL (≈ 120 µM); pIC50 [16, 31]: 4.02 |
